Measured values taken from article PMC5719402, “Protein-Structure Assisted Optimization of 4,5-Dihydroxypyrimidine-6-Carboxamide Inhibitors of Influenza Virus Endonuclease” (Scientific Reports, 2017).

Target: wild type PAN ΔLoop protein (Influenza A virus, UniProt C3W5S0, DEL51-57/DEL61-72/E59G)
Assay type: biochemical, influenza A/California/04/2009 H1N1
Details: read-out: FRET IC50

## O=C(O)C(=O)CC(=O)c1ccccc1 [DPBA, reference compound]
  IC50: 98 ± 3 nM
